Test results taken from US10973906B2, “Therapeutic peptides and vaccines” (priority 2005, dated 2021).
Where a SMILES comes first, the peptide text is derived from it.

B1: MIP-1β: CCR5 selective chemokine ligand (protein)
chain: APMGSDPPTACCFSYTARKLPRNFVVDYYETSSLCSQPAVVFQTKRSKQVCADPSESWVQEYVYDLELN

Target: T1, CCR5 (Homo sapiens, UniProt P51681)
T1 construct: expressed in transfected cells; host or cells: ChfTh-CCR5 expressing cells (so in the source)
Test: biochemical
Format: binding
Conditions: not given
Protocol: (§1) The antiviral assays are described in detail in the prior art (Ruff et al., 2001, Antiviral Res, 52, 63-75), which is hereby incorporated by reference, and will be here described only briefly.
(§2) We prepared a novel FITC-labeled tracer from soluble gp120 proteins (25 μg/ml) using a Fluorescent Protein labeling kit (Roche Diagnostics GmBh). Binding assays were performed in binding buffer containing 50mM HEPES (Gibco), pH=7.4, 5 mM MgCl2, 1 mM CaCl2.6H20 (Sigma), 5% BSA (Sigma) and 0.1% NaN3, final volume 100 μl. Binding was carried out for 1 h at 37° C. in 96-well filter plates (Millipore) using several CCR5 expressing lines, as indicated. Unbound labeled proteins were removed by rapid vacuum filtration and washing using a 96-well plate manifold. Filters were counted with a fluorescent plate reader (Hewlett Packard) at 495/530 nm. Non-specific binding was determined in the absence of sCD4 and was subtracted from the gp120-FITC binding in presence of 100 nM sCD4 (total binding).

T1 sequence (P51681 whole entry): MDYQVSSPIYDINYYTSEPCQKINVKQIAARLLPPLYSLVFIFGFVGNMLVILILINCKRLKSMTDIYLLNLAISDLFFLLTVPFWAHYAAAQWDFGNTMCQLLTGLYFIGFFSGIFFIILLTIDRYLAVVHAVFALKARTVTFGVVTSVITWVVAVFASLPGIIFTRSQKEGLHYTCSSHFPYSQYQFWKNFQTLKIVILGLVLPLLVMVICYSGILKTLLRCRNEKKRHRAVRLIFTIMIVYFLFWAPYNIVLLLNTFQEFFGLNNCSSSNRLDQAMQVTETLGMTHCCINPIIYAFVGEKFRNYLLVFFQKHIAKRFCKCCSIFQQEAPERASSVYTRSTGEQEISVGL

Molecule	EC50 [nM]
N=C(N)NCCC[C@H](NC(=O)[C@H](Cc1ccc(O)cc1)NC(=O)[C@H](CO)NC(=O)[C@H](CO)NC(=O)[C@@H](N)CC(N)=O)C(=O)O [NSSYR] (H-NSSYR-OH)	0.04
N=C(N)NCCC[C@H](NC(=O)[C@H](Cc1ccc(O)cc1)NC(=O)[C@H](CCC(=O)O)NC(=O)[C@H](CO)NC(=O)[C@@H](N)CC(N)=O)C(=O)O [NSEYR] (H-NSEYR-OH)	0.08
N=C(N)NCCC[C@H](NC(=O)[C@H](Cc1ccc(O)cc1)NC(=O)[C@H](CCCNC(=N)N)NC(=O)[C@H](CC(N)=O)NC(=O)[C@@H](N)CC(N)=O)C(=O)O [NNRYR] (H-NNRYR-OH)	0.2
C[C@@H](O)[C@H](N)C(=O)N[C@H](C(=O)N[C@@H](CO)C(=O)N[C@@H](Cc1ccc(O)cc1)C(=O)N[C@@H](CCCNC(=N)N)C(=O)O)[C@@H](C)O [TTSYR] (H-TTSYR-OH)	0.1
N=C(N)NCCC[C@H](NC(=O)[C@H](Cc1ccc(O)cc1)NC(=O)[C@H](CO)NC(=O)[C@H](CO)NC(=O)[C@@H](N)Cc1ccc(O)cc1)C(=O)O [YSSYR] (H-YSSYR-OH)	0.6
C[C@@H](O)[C@H](NC(=O)[C@H](Cc1ccc(O)cc1)NC(=O)[C@H](CO)NC(=O)[C@H](CO)NC(=O)[C@@H](N)CC(N)=O)C(=O)O [NSSYT] (H-NSSYT-OH)	0.2
C[C@@H](O)[C@H](N)C(=O)N[C@@H](CO)C(=O)N[C@@H](CC(N)=O)C(=O)N[C@@H](Cc1ccc(O)cc1)C(=O)N[C@@H](CO)C(=O)O [TSNYS] (H-TSNYS-OH)	0.2
NC(=O)C[C@H](NC(=O)[C@H](CO)NC(=O)[C@@H](N)CC(N)=O)C(=O)N[C@@H](Cc1ccc(O)cc1)C(=O)N[C@@H](CO)C(=O)O [NSNYS] (H-NSNYS-OH)	0.5
CC[C@H](C)[C@H](NC(=O)[C@@H](N)[C@@H](C)O)C(=O)N[C@@H](CO)C(=O)N[C@@H](Cc1ccc(O)cc1)C(=O)N[C@@H](CCCNC(=N)N)C(=O)O [TISYR] (H-TISYR-OH)	0.4
C[C@@H](O)[C@H](NC(=O)[C@@H](N)CC(N)=O)C(=O)N[C@@H](CO)C(=O)N[C@@H](Cc1ccc(O)cc1)C(=O)N[C@@H](CCCNC(=N)N)C(=O)O [NTSYR] (H-NTSYR-OH)	0.1
N=C(N)NCCC[C@H](NC(=O)[C@H](Cc1ccc(O)cc1)NC(=O)[C@H](CCC(=O)O)NC(=O)[C@H](CO)NC(=O)[C@@H](N)CO)C(=O)O [SSEYR] (H-SSEYR-OH)	0.3
C[C@@H](O)[C@H](N)C(=O)N[C@H](C(=O)N[C@@H](CO)C(=O)N[C@@H](Cc1ccc(O)cc1)C(=O)N[C@H](C(=O)O)[C@@H](C)O)[C@@H](C)O [TTSYT] (H-TTSYT-OH)	0.05

Target: T1, CCR5
Test: not given
Format: binding
Conditions: 10 nM
Protocol: as §1, §2
These studies are illustrated in FIG. 4. Total specific binding was defined as the difference in binding of FITIC-gp120 with or without added sCD4 (100 nM).
Data shown (panels A-C) are the mean and […] of three experiments, each with triplicate determinations. Analyses were performed by PRISM.

Molecule	inhibition of binding of gp120 proteins Bal and CM235
B1	inhibited

Same assay, conditions: gp120BaL/sCD4, Cf2Th/synR5 cells

Molecule	inhibition of binding of gp120BaL/sCD4 to CCR5
B1	completely inhibited
